Experimental data: ChEMBL document CHEMBL1136241 (Bioorg Med Chem Lett, 2003)

How the values were obtained:
D(4) dopamine receptor = target: T1, D(4) dopamine receptor (Homo sapiens, UniProt P21917)
T1 sequence (P21917 whole entry): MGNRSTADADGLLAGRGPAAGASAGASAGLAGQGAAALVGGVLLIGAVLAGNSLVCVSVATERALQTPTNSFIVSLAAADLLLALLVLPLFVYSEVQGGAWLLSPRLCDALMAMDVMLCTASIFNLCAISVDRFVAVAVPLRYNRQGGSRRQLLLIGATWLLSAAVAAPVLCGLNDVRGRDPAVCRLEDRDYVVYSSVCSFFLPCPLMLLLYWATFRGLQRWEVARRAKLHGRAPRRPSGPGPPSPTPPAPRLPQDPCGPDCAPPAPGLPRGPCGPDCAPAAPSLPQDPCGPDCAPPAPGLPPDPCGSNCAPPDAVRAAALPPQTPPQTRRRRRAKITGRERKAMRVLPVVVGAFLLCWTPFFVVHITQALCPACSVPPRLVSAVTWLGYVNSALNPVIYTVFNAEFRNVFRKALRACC

D(2) dopamine receptor [1] = target: T2, D(2) dopamine receptor (Homo sapiens, UniProt P14416); assay: biochemical
T2 sequence (P14416 whole entry): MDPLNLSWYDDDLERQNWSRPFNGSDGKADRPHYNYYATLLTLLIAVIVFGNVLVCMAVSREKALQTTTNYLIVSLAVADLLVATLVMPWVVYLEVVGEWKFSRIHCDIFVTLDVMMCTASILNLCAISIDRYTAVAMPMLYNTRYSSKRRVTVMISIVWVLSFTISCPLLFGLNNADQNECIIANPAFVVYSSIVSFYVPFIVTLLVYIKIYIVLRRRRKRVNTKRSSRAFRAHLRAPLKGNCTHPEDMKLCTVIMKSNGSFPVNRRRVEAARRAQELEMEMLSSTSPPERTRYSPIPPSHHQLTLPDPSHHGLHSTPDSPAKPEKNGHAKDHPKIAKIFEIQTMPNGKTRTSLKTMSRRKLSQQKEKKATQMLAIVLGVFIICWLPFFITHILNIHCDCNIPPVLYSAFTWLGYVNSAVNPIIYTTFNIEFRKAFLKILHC

D(2) dopamine receptor [2] = target: T2, D(2) dopamine receptor; assay: biochemical; remark: listed apart in the source
D(3) dopamine receptor [3] = target: T3, D(3) dopamine receptor (Homo sapiens, UniProt P35462); assay: biochemical
T3 sequence (P35462 whole entry): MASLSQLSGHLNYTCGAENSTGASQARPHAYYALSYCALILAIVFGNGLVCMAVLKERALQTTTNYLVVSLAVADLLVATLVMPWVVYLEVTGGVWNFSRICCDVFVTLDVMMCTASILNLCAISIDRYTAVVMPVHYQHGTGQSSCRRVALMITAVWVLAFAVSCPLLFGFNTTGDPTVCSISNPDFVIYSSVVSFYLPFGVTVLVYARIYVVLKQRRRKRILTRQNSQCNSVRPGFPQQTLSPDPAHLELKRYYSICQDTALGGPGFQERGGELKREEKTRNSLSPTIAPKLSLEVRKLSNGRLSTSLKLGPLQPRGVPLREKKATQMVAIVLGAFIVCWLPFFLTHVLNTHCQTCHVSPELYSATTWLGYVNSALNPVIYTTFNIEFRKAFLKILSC

D(1A) dopamine receptor = D(1A) dopamine receptor (Bos taurus, UniProt Q95136)
D(1A) dopamine receptor, sequence (Q95136 whole entry): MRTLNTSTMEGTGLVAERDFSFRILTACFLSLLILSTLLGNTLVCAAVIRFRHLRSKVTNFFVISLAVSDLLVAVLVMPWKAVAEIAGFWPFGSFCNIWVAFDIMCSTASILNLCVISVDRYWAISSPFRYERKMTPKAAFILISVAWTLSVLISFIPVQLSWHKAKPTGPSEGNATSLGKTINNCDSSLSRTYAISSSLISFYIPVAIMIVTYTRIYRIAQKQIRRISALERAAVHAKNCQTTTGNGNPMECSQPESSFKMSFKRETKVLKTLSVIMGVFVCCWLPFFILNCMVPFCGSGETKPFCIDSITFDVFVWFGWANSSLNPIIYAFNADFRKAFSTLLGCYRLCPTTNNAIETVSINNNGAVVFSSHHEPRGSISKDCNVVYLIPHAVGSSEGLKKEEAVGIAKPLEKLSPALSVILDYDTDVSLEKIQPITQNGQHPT

D(3) dopamine receptor [4] = target: T3, D(3) dopamine receptor; settings: cho
D(2) dopamine receptor [5] = target: T2, D(2) dopamine receptor; assay: Ability to displace [3H]spiperone [0.5 nM (Kd=0.2-0.45 nM)] from human cloned dopamine receptor D2S expressed in CHO cells at 0.5 nM concentration; format: cell-based

CNc1cc(OC)c(C(=O)NC2CCN(Cc3ccccc3)CC2)cc1Cl
Ki (D(4) dopamine receptor): 8.3 nM
Ki (D(2) dopamine receptor [1]): 24 nM
Ki (D(2) dopamine receptor [2]): 15 nM
Ki (D(3) dopamine receptor [3]): 160 nM
Ki (D(1A) dopamine receptor): 6800 nM

COc1c(C(=O)N[C@@H]2CCN(Cc3ccccc3)C2)cc(C#Cc2ccccc2)c2ccccc12 (stereo in doubt)
Ki (D(4) dopamine receptor): 1500 nM
Ki (D(3) dopamine receptor [4]): 1000 nM
Ki (D(2) dopamine receptor [1]): 7700 nM
Ki (D(2) dopamine receptor [2]): 5500 nM
Ki (D(1A) dopamine receptor): 3300 nM

CNc1cc(OC)c(C(=O)N[C@H]2CCN(Cc3ccccc3)C[C@@H]2C)cc1Cl (stereo in doubt)
Ki (D(4) dopamine receptor): 1.6 nM
Ki (D(2) dopamine receptor [1]): 8 nM
Ki (D(2) dopamine receptor [2]): 6.4 nM
Ki (D(3) dopamine receptor [3]): 13 nM
Ki (D(1A) dopamine receptor): 4400 nM

CNc1cc(OC)c(C(=O)N[C@H]2CN(Cc3ccccc3)C[C@@H]2C)cc1Cl (stereo in doubt)
Ki (D(4) dopamine receptor): 4.3 nM
Ki (D(2) dopamine receptor [1]): 15 nM
Ki (D(2) dopamine receptor [2]): 11 nM
Ki (D(3) dopamine receptor [3]): 27 nM
Ki (D(1A) dopamine receptor): 5300 nM

COc1cc(N)c(Cl)cc1C(=O)N[C@H]1CCCN(Cc2ccccc2)C1 (stereo in doubt)
Ki (D(4) dopamine receptor): 530 nM
Ki (D(2) dopamine receptor [1]): 7900 nM
Ki (D(2) dopamine receptor [2]): 4200 nM
Ki (D(3) dopamine receptor [3]): 8700 nM
Ki (D(1A) dopamine receptor): 13000 nM

C#Cc1cc(C(=O)N[C@@H]2CCN(Cc3ccccc3)C2)c(OC)c2ccccc12 (stereo in doubt)
Ki (D(4) dopamine receptor): 7 nM
Ki (D(2) dopamine receptor [1]): 500 nM
Ki (D(2) dopamine receptor [2]): 250 nM
Ki (D(3) dopamine receptor [3]): 79 nM
Ki (D(1A) dopamine receptor): 6100 nM

COc1c(C(=O)NCC[C@@H]2CCN(Cc3ccccc3)C2)cc(Br)c2ccccc12 (stereo in doubt)
Ki (D(4) dopamine receptor): 610 nM
Ki (D(2) dopamine receptor [1]): 2500 nM
Ki (D(2) dopamine receptor [2]): 2800 nM
Ki (D(3) dopamine receptor [3]): 1000 nM
Ki (D(1A) dopamine receptor): 2100 nM

COc1c(C(=O)N[C@@H]2CCN(Cc3ccccc3)C2)cc(Br)c2ccccc12 (stereo in doubt)
Ki (D(4) dopamine receptor): 21 nM
Ki (D(2) dopamine receptor [1]): 150 nM
Ki (D(2) dopamine receptor [2]): 150 nM
Ki (D(3) dopamine receptor [3]): 84 nM
Ki (D(1A) dopamine receptor): 7400 nM

COc1c(C(=O)N[C@H]2CN(Cc3ccccc3)C[C@H]2C)cc(Br)c2ccccc12 (stereo in doubt)
Ki (D(4) dopamine receptor): 27 nM
Ki (D(2) dopamine receptor [5]): 170 nM
Ki (D(2) dopamine receptor [1]): 290 nM
Ki (D(3) dopamine receptor [3]): 130 nM
Ki (D(1A) dopamine receptor): 4000 nM

COc1cc(N)c(Cl)cc1C(=O)N[C@H]1CCN(Cc2ccccc2)C[C@@H]1C (stereo in doubt)
Ki (D(4) dopamine receptor): 7.4 nM
Ki (D(2) dopamine receptor [1]): 8.6 nM
Ki (D(2) dopamine receptor [2]): 7.4 nM
Ki (D(3) dopamine receptor [3]): 20 nM
Ki (D(1A) dopamine receptor): 7100 nM

COc1c(C(=O)N[C@@H]2CCN(Cc3ccccc3)C2)cc(I)c2ccccc12 (stereo in doubt)
Ki (D(4) dopamine receptor): 3.3 nM
Ki (D(2) dopamine receptor [1]): 190 nM
Ki (D(2) dopamine receptor [2]): 70 nM
Ki (D(3) dopamine receptor [3]): 33 nM
Ki (D(1A) dopamine receptor): 6100 nM

COc1c(C(=O)NC[C@@H]2CCN(Cc3ccccc3)C2)cc(Br)c2ccccc12 (stereo in doubt)
Ki (D(4) dopamine receptor): 78 nM
Ki (D(2) dopamine receptor [1]): 1300 nM
Ki (D(2) dopamine receptor [2]): 870 nM
Ki (D(3) dopamine receptor [3]): 1000 nM
Ki (D(1A) dopamine receptor): 2900 nM

CNc1cc(OC)c(C(=O)N[C@H]2CN(Cc3ccccc3)C[C@H]2C)cc1Cl (stereo in doubt)
Ki (D(4) dopamine receptor): 0.84 nM
Ki (D(2) dopamine receptor [1]): 2.3 nM
Ki (D(2) dopamine receptor [2]): 2 nM
Ki (D(3) dopamine receptor [3]): 1.8 nM
Ki (D(1A) dopamine receptor): 4700 nM

COc1c(C(=O)N[C@H]2CN(Cc3ccccc3)C[C@@H]2C)cc(Br)c2ccccc12 (stereo in doubt)
Ki (D(4) dopamine receptor): 59 nM
Ki (D(2) dopamine receptor [1]): 490 nM
Ki (D(2) dopamine receptor [2]): 260 nM
Ki (D(3) dopamine receptor [3]): 140 nM
Ki (D(1A) dopamine receptor): 4200 nM

CNc1cc(OC)c(C(=O)N[C@H]2CCCN(Cc3ccccc3)C2)cc1Cl (stereo in doubt)
Ki (D(4) dopamine receptor): 64 nM
Ki (D(2) dopamine receptor [1]): 250 nM
Ki (D(2) dopamine receptor [2]): 210 nM
Ki (D(3) dopamine receptor [3]): 1500 nM
Ki (D(1A) dopamine receptor): 5600 nM

COc1cc(N)c(Cl)cc1C(=O)N[C@H]1CCN(Cc2ccccc2)C[C@@H]1C (stereo in doubt; 3a)
Ki (D(4) dopamine receptor): 35 nM
Ki (D(2) dopamine receptor [1]): 470 nM
Ki (D(2) dopamine receptor [2]): 340 nM
Ki (D(3) dopamine receptor [3]): 2200 nM
Ki (D(1A) dopamine receptor): 19000 nM

CNc1cc(OC)c(C(=O)N[C@H]2CCN(Cc3ccccc3)C[C@@H]2C)cc1Cl (stereo in doubt; 3b)
Ki (D(4) dopamine receptor): 4.7 nM
Ki (D(2) dopamine receptor [1]): 54 nM
Ki (D(2) dopamine receptor [2]): 39 nM
Ki (D(3) dopamine receptor [3]): 510 nM
Ki (D(1A) dopamine receptor): 8200 nM

CNc1cc(OC)c(C(=O)N[C@H]2CN(Cc3ccccc3)C[C@@H]2C)cc1Cl (stereo in doubt; 3c)
Ki (D(4) dopamine receptor): 0.77 nM
Ki (D(2) dopamine receptor [1]): 21 nM
Ki (D(2) dopamine receptor [2]): 19 nM
Ki (D(3) dopamine receptor [3]): 220 nM
Ki (D(1A) dopamine receptor): 12000 nM

COc1c(C(=O)N[C@H]2CN(Cc3ccccc3)C[C@@H]2C)cc(Br)c2ccccc12 (stereo in doubt; 3d)
Ki (D(4) dopamine receptor): 17 nM
Ki (D(2) dopamine receptor [1]): 1000 nM
Ki (D(2) dopamine receptor [2]): 700 nM
Ki (D(3) dopamine receptor [3]): 740 nM
Ki (D(1A) dopamine receptor): 8400 nM

CNc1cc(OC)c(C(=O)N[C@H]2CN(Cc3ccccc3)C[C@H]2C)cc1Cl (stereo in doubt; 3e)
Ki (D(4) dopamine receptor): 0.23 nM
Ki (D(2) dopamine receptor [1]): 3.7 nM
Ki (D(2) dopamine receptor [2]): 3 nM
Ki (D(3) dopamine receptor [3]): 100 nM
Ki (D(1A) dopamine receptor): 4100 nM

COc1c(C(=O)N[C@H]2CN(Cc3ccccc3)C[C@H]2C)cc(Br)c2ccccc12 (stereo in doubt; 3f)
Ki (D(4) dopamine receptor): 2.7 nM
Ki (D(2) dopamine receptor [1]): 200 nM
Ki (D(2) dopamine receptor [2]): 135 nM
Ki (D(3) dopamine receptor [3]): 390 nM
Ki (D(1A) dopamine receptor): 4700 nM

COc1c(C(=O)N[C@@H]2CCN(Cc3ccccc3)C2)cc(Br)c2ccccc12 (stereo in doubt; 3g)
Ki (D(4) dopamine receptor): 5 nM
Ki (D(2) dopamine receptor [5]): 130 nM
Ki (D(2) dopamine receptor [1]): 180 nM
Ki (D(3) dopamine receptor [3]): 250 nM
Ki (D(1A) dopamine receptor): 7200 nM

COc1c(C(=O)N[C@@H]2CCN(Cc3ccccc3)C2)cc(I)c2ccccc12 (stereo in doubt; 3h)
Ki (D(4) dopamine receptor): 1.2 nM
Ki (D(2) dopamine receptor [1]): 60 nM
Ki (D(2) dopamine receptor [2]): 23 nM
Ki (D(3) dopamine receptor [3]): 34 nM
Ki (D(1A) dopamine receptor): 3000 nM

C#Cc1cc(C(=O)N[C@@H]2CCN(Cc3ccccc3)C2)c(OC)c2ccccc12 (stereo in doubt; 3i)
Ki (D(4) dopamine receptor): 2.5 nM
Ki (D(2) dopamine receptor [1]): 190 nM
Ki (D(2) dopamine receptor [2]): 82 nM
Ki (D(3) dopamine receptor [3]): 86 nM
Ki (D(1A) dopamine receptor): 3300 nM

COc1c(C(=O)N[C@@H]2CCN(Cc3ccccc3)C2)cc(C#Cc2ccccc2)c2ccccc12 (stereo in doubt; 3j)
Ki (D(4) dopamine receptor): 500 nM
Ki (D(2) dopamine receptor [1]): 6400 nM
Ki (D(2) dopamine receptor [2]): 4000 nM
Ki (D(3) dopamine receptor [3]): 1000 nM
Ki (D(1A) dopamine receptor): 2800 nM

COc1c(C(=O)NC[C@@H]2CCN(Cc3ccccc3)C2)cc(Br)c2ccccc12 (stereo in doubt; 3k)
Ki (D(4) dopamine receptor): 130 nM
Ki (D(2) dopamine receptor [1]): 640 nM
Ki (D(2) dopamine receptor [2]): 420 nM
Ki (D(3) dopamine receptor [3]): 410 nM
Ki (D(1A) dopamine receptor): 2100 nM

COc1c(C(=O)NCC[C@@H]2CCN(Cc3ccccc3)C2)cc(Br)c2ccccc12 (stereo in doubt; 3l)
Ki (D(4) dopamine receptor): 500 nM
Ki (D(2) dopamine receptor [1]): 2000 nM
Ki (D(2) dopamine receptor [2]): 1900 nM
Ki (D(3) dopamine receptor [3]): 580 nM
Ki (D(1A) dopamine receptor): 1700 nM

COc1cc(N)c(Cl)cc1C(=O)N[C@H]1CCCN(Cc2ccccc2)C1 (stereo in doubt; 5a)
Ki (D(4) dopamine receptor): 200 nM
Ki (D(2) dopamine receptor [1]): 1600 nM
Ki (D(2) dopamine receptor [2]): 1100 nM
Ki (D(3) dopamine receptor [3]): 2900 nM
Ki (D(1A) dopamine receptor): 17000 nM

CNc1cc(OC)c(C(=O)N[C@H]2CCCN(Cc3ccccc3)C2)cc1Cl (stereo in doubt; 5b)
Ki (D(4) dopamine receptor): 25 nM
Ki (D(2) dopamine receptor [1]): 170 nM
Ki (D(2) dopamine receptor [2]): 130 nM
Ki (D(3) dopamine receptor [3]): 560 nM
Ki (D(1A) dopamine receptor): 10000 nM
